Test results from ChEMBL document CHEMBL4004877, “Synthesis and biological evaluation of chalcone, dihydrochalcone, and 1,3-diarylpropane analogs as anti-inflammatory agents” (Bioorg Med Chem Lett, 2017).
Converted amounts (≈) assume the structure as drawn. Each block holds one compound with its values, some of them ahead of it.

How the values were obtained:
[1] = Cytotoxicity against LPS-stimulated mouse RAW264.7 cells assessed as cell viability at 10 ug/ml after 24 hrs by MTT assay relative to control; format: cell-based; conditions: LPS-stimulated RAW264.7 cells, read-out: Activity
[2] = Cytotoxicity against LPS-stimulated mouse RAW264.7 cells assessed as cell viability at 5 ug/ml after 24 hrs by MTT assay relative to control; format: cell-based; conditions: LPS-stimulated RAW264.7 cells, read-out: Activity
RAW264.7 [3] = experiment: Antiinflammatory activity in mouse RAW264.7 cells assessed as inhibition of LPS induced iNOS-dependent nitric oxide production at 5 ug/ml after 24 hrs by Griess assay relative to control; format: functional; conditions: RAW264.7, 24 h
[4] = Cytotoxicity against LPS-stimulated mouse RAW264.7 cells assessed as cell viability at 1.25 ug/ml after 24 hrs by MTT assay relative to control; format: cell-based; conditions: LPS-stimulated RAW264.7 cells, read-out: Activity
RAW264.7 [5] = experiment: Antiinflammatory activity in mouse RAW264.7 cells assessed as inhibition of LPS induced iNOS-dependent nitric oxide production at 2.5 ug/ml after 24 hrs by Griess assay relative to control; format: functional; conditions: RAW264.7, 24 h
[6] = Cytotoxicity against LPS-stimulated mouse RAW264.7 cells assessed as cell viability at 2.5 ug/ml after 24 hrs by MTT assay relative to control; format: cell-based; conditions: LPS-stimulated RAW264.7 cells, read-out: Activity
RAW264.7 [7] = experiment: Antiinflammatory activity in mouse RAW264.7 cells assessed as inhibition of LPS induced iNOS-dependent nitric oxide production after 24 hrs by Griess assay; format: functional, cell-based; conditions: RAW264.7, 24 h
RAW264.7 [8] = experiment: Antiinflammatory activity in mouse RAW264.7 cells assessed as inhibition of LPS induced iNOS-dependent nitric oxide production at 10 ug/ml after 24 hrs by Griess assay relative to control; format: functional; conditions: RAW264.7, 24 h
RAW264.7 [9] = experiment: Antiinflammatory activity in mouse RAW264.7 cells assessed as inhibition of LPS induced iNOS-dependent nitric oxide production at 1.25 ug/ml after 24 hrs by Griess assay relative to control; format: functional; conditions: RAW264.7, 24 h

IC50 (RAW264.7 [7]): 2.35 µg/mL (≈ 7.48 µM)
Compound: COc1ccc(C(=O)/C=C/c2cccc(OC)c2OC)c(O)c1
viability at 24 h, 10 ug/ml [1]: 60.3% | viability at 24 h, 5 ug/ml [2]: 69.7% | inhibition at 5 µg/mL (RAW264.7 [3]): 55.3% | viability at 24 h, 1.25 ug/ml [4]: 94.2% | inhibition at 2.5 µg/mL (RAW264.7 [5]): 54.7% | viability at 24 h, 2.5 ug/ml [6]: 72.9% | inhibition at 10 µg/mL (RAW264.7 [8]): 59.7% | inhibition at 1.25 µg/mL (RAW264.7 [9]): 1.3%

IC50 (RAW264.7 [7]): 9.44 µg/mL (≈ 31.4 µM)
Compound: COc1cc(C(=O)CCc2ccc3c(c2)OCO3)ccc1O
viability at 24 h, 10 ug/ml [1]: 89% | viability at 24 h, 5 ug/ml [2]: 92% | inhibition at 5 µg/mL (RAW264.7 [3]): 32.2% | viability at 24 h, 1.25 ug/ml [4]: 95.3% | inhibition at 2.5 µg/mL (RAW264.7 [5]): 5.5% | viability at 24 h, 2.5 ug/ml [6]: 94.5% | inhibition at 10 µg/mL (RAW264.7 [8]): 51.6% | inhibition at 1.25 µg/mL (RAW264.7 [9]): 4.2%

IC50 (RAW264.7 [7]): 7.13 µg/mL (≈ 27.6 µM)
Compound: COc1cc(CCCc2cccc(O)c2)ccc1O
viability at 24 h, 10 ug/ml [1]: 76.1% | viability at 24 h, 5 ug/ml [2]: 97.7% | inhibition at 5 µg/mL (RAW264.7 [3]): 18.1% | viability at 24 h, 1.25 ug/ml [4]: 100% | inhibition at 2.5 µg/mL (RAW264.7 [5]): 15.9% | viability at 24 h, 2.5 ug/ml [6]: 99.5% | inhibition at 10 µg/mL (RAW264.7 [8]): 80.4% | inhibition at 1.25 µg/mL (RAW264.7 [9]): 10.9%

IC50 (RAW264.7 [7]): 6.58 µg/mL (≈ 23 µM)
Compound: COc1ccc(CCC(=O)c2cccc(O)c2)cc1OC
viability at 24 h, 10 ug/ml [1]: 97.9% | viability at 24 h, 5 ug/ml [2]: 98% | inhibition at 5 µg/mL (RAW264.7 [3]): 46.2% | viability at 24 h, 1.25 ug/ml [4]: 101% | inhibition at 2.5 µg/mL (RAW264.7 [5]): 18.6% | viability at 24 h, 2.5 ug/ml [6]: 98.9% | inhibition at 10 µg/mL (RAW264.7 [8]): 55.8% | inhibition at 1.25 µg/mL (RAW264.7 [9]): 5.4%

IC50 (RAW264.7 [7]): 2.57 µg/mL (≈ 8.5 µM)
Compound: COc1cc(CCCc2cccc(OC)c2OC)ccc1O
viability at 24 h, 10 ug/ml [1]: 68.9% | viability at 24 h, 5 ug/ml [2]: 97% | inhibition at 5 µg/mL (RAW264.7 [3]): 60.7% | viability at 24 h, 1.25 ug/ml [4]: 99.6% | inhibition at 2.5 µg/mL (RAW264.7 [5]): 49.5% | viability at 24 h, 2.5 ug/ml [6]: 97.8% | inhibition at 10 µg/mL (RAW264.7 [8]): 89.4% | inhibition at 1.25 µg/mL (RAW264.7 [9]): 43.3%

IC50 (RAW264.7 [7]): > 10 µg/mL
Compound: COc1ccc(CCC(=O)c2ccc(OC)cc2O)cc1
viability at 24 h, 10 ug/ml [1]: 88% | viability at 24 h, 5 ug/ml [2]: 92.3% | inhibition at 5 µg/mL (RAW264.7 [3]): 14.5% | viability at 24 h, 1.25 ug/ml [4]: 95.1% | inhibition at 2.5 µg/mL (RAW264.7 [5]): 10.5% | viability at 24 h, 2.5 ug/ml [6]: 94.5% | inhibition at 10 µg/mL (RAW264.7 [8]): 25.9% | inhibition at 1.25 µg/mL (RAW264.7 [9]): 7.8%

IC50 (RAW264.7 [7]): 3.92 µg/mL (≈ 13 µM)
Compound: COc1ccc(CCCc2ccc(OC)c(OC)c2)cc1O
viability at 24 h, 10 ug/ml [1]: 51.9% | viability at 24 h, 5 ug/ml [2]: 86.2% | inhibition at 5 µg/mL (RAW264.7 [3]): 57.4% | viability at 24 h, 1.25 ug/ml [4]: 98% | inhibition at 2.5 µg/mL (RAW264.7 [5]): 36.3% | viability at 24 h, 2.5 ug/ml [6]: 95.5% | inhibition at 10 µg/mL (RAW264.7 [8]): 83.6% | inhibition at 1.25 µg/mL (RAW264.7 [9]): 32.4%

IC50 (RAW264.7 [7]): 6.37 µg/mL (≈ 23.4 µM)
Compound: COc1ccc(CCCc2ccc(OC)cc2O)cc1
viability at 24 h, 10 ug/ml [1]: 73.8% | viability at 24 h, 5 ug/ml [2]: 94.6% | inhibition at 5 µg/mL (RAW264.7 [3]): 37.8% | viability at 24 h, 1.25 ug/ml [4]: 98.9% | inhibition at 2.5 µg/mL (RAW264.7 [5]): 30.5% | viability at 24 h, 2.5 ug/ml [6]: 96.8% | inhibition at 10 µg/mL (RAW264.7 [8]): 72.5% | inhibition at 1.25 µg/mL (RAW264.7 [9]): 25.7%

IC50 (RAW264.7 [7]): > 10 µg/mL
Compound: COc1ccc(C(=O)CCc2cc(OC)ccc2OC)c(O)c1
viability at 24 h, 10 ug/ml [1]: 92.4% | viability at 24 h, 5 ug/ml [2]: 91.1% | inhibition at 5 µg/mL (RAW264.7 [3]): 11.9% | viability at 24 h, 1.25 ug/ml [4]: 96.4% | inhibition at 2.5 µg/mL (RAW264.7 [5]): 8.2% | viability at 24 h, 2.5 ug/ml [6]: 96.2% | inhibition at 10 µg/mL (RAW264.7 [8]): 14% | inhibition at 1.25 µg/mL (RAW264.7 [9]): 6.6%

IC50 (RAW264.7 [7]): > 10 µg/mL
Compound: COc1ccc(C(=O)CCc2ccc3c(c2)OCO3)c(O)c1
viability at 24 h, 10 ug/ml [1]: 94.4% | viability at 24 h, 5 ug/ml [2]: 96.2% | inhibition at 5 µg/mL (RAW264.7 [3]): 14.1% | viability at 24 h, 1.25 ug/ml [4]: 99.8% | inhibition at 2.5 µg/mL (RAW264.7 [5]): 10.6% | viability at 24 h, 2.5 ug/ml [6]: 96.8% | inhibition at 10 µg/mL (RAW264.7 [8]): 25.9% | inhibition at 1.25 µg/mL (RAW264.7 [9]): 5.1%

Compound: COc1ccc(/C=C/C(=O)c2cccc(O)c2)cc1
viability at 24 h, 10 ug/ml [1]: 41.2% | viability at 24 h, 5 ug/ml [2]: 63.3% | viability at 24 h, 1.25 ug/ml [4]: 99% | inhibition at 2.5 µg/mL (RAW264.7 [5]): 2.1% | viability at 24 h, 2.5 ug/ml [6]: 99.1% | inhibition at 1.25 µg/mL (RAW264.7 [9]): 9.4%
